Key:
[1] = test system: Aod(xtal-wtL2) (RNA, riboswitch) GGGUCGUGACUGGCGAACAGGUGGGCCACCACCGGGGAGCGACCCUUGCCGCCCGCCUGGGCAA; assay: ITC; conditions: 135 mM KCl, 15 mM NaCl, 10 mM MgCl2; 10 mM K-HEPES pH 8.0
[2] = test system: Aod(xtal) (RNA, riboswitch) GGGUCGUGACUGGCGAACAGGUGGGAAACCACCGGGGAGCGACCCUUGCCGCCCGCCUGGGCAA; assay: ITC; conditions: 135 mM KCl, 15 mM NaCl, 10 mM MgCl2; 10 mM K-HEPES pH 8.0

KD [1]: 470 ± 30 nM
KD [2]: 1080 ± 60 nM
SMILES: NC(=O)c1ncn([C@@H]2O[C@H](COP(=O)(O)O)[C@@H](O)[C@H]2O)c1N

— article PMC4557640 (2015)
